From patent publication US10323038B2, “Pyrazole compounds and methods of making and using same” (ABIDE THERAPEUTICS, INC., priority 2015, dated 2019) come the findings set out here.

What is called IC50 is the midpoint of a concentration-inhibition curve. Read a high IC50 as weaker potency in that assay.

In test [1] the target is FAAH (Mus musculus (Mouse), UniProt O08914). Nature of the test: In vitro competitive activity-based protein profiling, FAAH (mouse). The class given is biochemical. As to conditions: for inhibition at 1 µM: read-out: FAAH % inh. 1 μM (mouse). In short, it runs like this: (§1)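 Mouse brain membrane fraction or cell lysates (mouse assays) and human prefrontal cortex or cell membrane fractions (human assays), 1.0 mg/mL protein, were preincubated with varying inhibitor concentrations for 30 min at 37° C. FP-Rh or HT-01 probe (50 μM stock in DMSO) was then added for another 30 min at 37° C.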
FAAH, sequence (O08914 whole entry): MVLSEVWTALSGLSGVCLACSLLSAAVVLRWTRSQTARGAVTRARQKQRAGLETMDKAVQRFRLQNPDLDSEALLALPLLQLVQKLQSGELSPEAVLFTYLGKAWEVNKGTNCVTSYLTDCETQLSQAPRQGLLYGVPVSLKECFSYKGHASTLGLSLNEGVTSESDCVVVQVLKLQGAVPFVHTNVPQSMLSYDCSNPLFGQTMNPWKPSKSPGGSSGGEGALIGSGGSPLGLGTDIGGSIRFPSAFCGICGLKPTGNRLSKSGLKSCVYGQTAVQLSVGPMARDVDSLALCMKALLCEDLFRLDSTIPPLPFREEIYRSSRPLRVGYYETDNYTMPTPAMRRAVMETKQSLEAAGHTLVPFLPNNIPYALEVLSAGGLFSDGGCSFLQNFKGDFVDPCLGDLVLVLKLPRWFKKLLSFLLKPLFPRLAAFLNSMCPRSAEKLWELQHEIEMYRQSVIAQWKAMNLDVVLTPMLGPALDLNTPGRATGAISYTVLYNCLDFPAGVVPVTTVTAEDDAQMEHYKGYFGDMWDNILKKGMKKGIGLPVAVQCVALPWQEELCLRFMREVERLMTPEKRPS

Test [2] has as its target MAGL (Mus musculus (Mouse), UniProt O35678). Nature of the test: In vitro competitive activity-based protein profiling, MAGL (mouse). It counts as biochemical. As to conditions: for inhibition at 1 µM: read-out: MAGL % inh. 1 μM (mouse). Put shortly:
as §1

MAGL, sequence (O35678 whole entry): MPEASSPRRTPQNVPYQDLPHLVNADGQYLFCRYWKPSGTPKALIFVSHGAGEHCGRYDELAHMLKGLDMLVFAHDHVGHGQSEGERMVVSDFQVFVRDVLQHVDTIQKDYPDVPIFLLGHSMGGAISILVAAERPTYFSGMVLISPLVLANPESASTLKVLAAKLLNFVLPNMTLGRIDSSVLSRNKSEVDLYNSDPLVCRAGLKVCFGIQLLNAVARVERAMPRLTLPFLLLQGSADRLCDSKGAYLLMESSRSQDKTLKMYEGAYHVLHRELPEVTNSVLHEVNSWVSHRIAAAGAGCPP

Consider `CC(=O)N(C)c1cnn(C(=O)N2C[C@H]3C[C@@H](N(C)Cc4cc(C(F)(F)F)ccc4Cl)C[C@H]3C2)c1` [Example 163, N-(1-(cis-5-((2-chloro-5-(trifluoromethyl)benzyl)(methyl)amino)octahydrocyclopenta[c]pyrrole-2-carbonyl)-1H-pyrazol-4-yl)-N-methylacetamide], for which the inhibition at 1 µM in test [1] and in test [2] was no less than 75% in each case.
As to `CC(=O)N(C)c1cnn(C(=O)N2C[C@H]3C[C@H](N(C)Cc4cc(Cl)ccc4C(F)(F)F)C[C@H]3C2)c1` [Example 164, N-(1-(trans-5-((5-chloro-2-(trifluoromethyl)benzyl)(methyl)amino)octahydrocyclopenta[c]pyrrole-2-carbonyl)-1H-pyrazol-4-yl)-N-methylacetamide], the IC50 in test [1] and in test [2] was no more than 0.1 µM throughout. Besides, the inhibition at 1 µM in test [1] and in test [2] was no less than 75% each time.
In the case of `CC(=O)N(C)c1cnn(C(=O)N2C[C@H]3C[C@H](N(C)Cc4cc(Cl)ccc4Cl)C[C@H]3C2)c1` [Example 165, N-(1-(trans-5-((2,5-dichlorobenzyl)(methyl)amino)octahydrocyclopenta[c]pyrrole-2-carbonyl)-1H-pyrazol-4-yl)-N-methylacetamide], the inhibition at 1 µM in test [1] and in test [2] was no less than 75% throughout.
As to `CC(=O)N(C)c1cnn(C(=O)N2C[C@H]3C[C@H](N(C)Cc4cc(C(F)(F)F)ccc4Cl)C[C@H]3C2)c1` [Example 166, N-(1-(trans-5-((2-chloro-5-(trifluoromethyl)benzyl)(methyl)amino)octahydrocyclopenta[c]pyrrole-2-carbonyl)-1H-pyrazol-4-yl)-N-methylacetamide], the inhibition at 1 µM in test [1] and in test [2] was no less than 75% throughout.
Take `CC(=O)N(C)c1cnn(C(=O)N2C[C@H]3C[C@@H](N(C)Cc4cc(N5CCCC5)ccc4C(F)(F)F)C[C@H]3C2)c1` [Example 167, N-methyl-N-(1-(cis-5-(methyl(5-(pyrrolidin-1-yl)-2-(trifluoromethyl)benzyl)amino)octahydrocyclopenta[c]pyrrole-2-carbonyl)-1H-pyrazol-4-yl)acetamide]: the inhibition at 1 µM in test [1] and in test [2] was no less than 75% each time.
For `CC(=O)N(C)c1cnn(C(=O)N2C[C@H]3C[C@@H](N(C)Cc4cc(C(F)(F)F)ccc4N4CCCC4)C[C@H]3C2)c1` [Example 168, N-methyl-N-(1-(cis-5-(methyl(2-(pyrrolidin-1-yl)-5-(trifluoromethyl)benzyl)amino)octahydrocyclopenta[c]pyrrole-2-carbonyl)-1H-pyrazol-4-yl)acetamide], the inhibition at 1 µM was 50 to 75% in test [1] and no less than 75% in test [2].
The like results for `CC(=O)N(C)c1cnn(C(=O)N2C[C@H]3C[C@@H](N(Cc4ccccc4Cl)C(C)=O)C[C@H]3C2)c1` [Example 169, N-(2-chlorobenzyl)-N-(cis-2-(4-(N-methylacetamido)-1H-pyrazole-1-carbonyl)octahydrocyclopenta[c]pyrrol-5-yl)acetamide] were, in that order, 25 to 50% and no less than 75%.
The like results for `CC(=O)N(C)c1cnn(C(=O)N2C[C@H]3C[C@@H](N(Cc4cccc(Cl)c4)C(C)=O)C[C@H]3C2)c1` [Example 170, N-(3-chlorobenzyl)-N-(cis-2-(4-(N-methylacetamido)-1H-pyrazole-1-carbonyl)octahydrocyclopenta[c]pyrrol-5-yl)acetamide] were, in that order, 25 to 50% and no less than 75%.
The like results for `CC(=O)N(C)c1cnn(C(=O)N2C[C@H]3C[C@@H](N(Cc4ccc(Cl)cc4)C(C)=O)C[C@H]3C2)c1` [Example 171, N-(4-chlorobenzyl)-N-(cis-2-(4-(N-methylacetamido)-1H-pyrazole-1-carbonyl)octahydrocyclopenta[c]pyrrol-5-yl)acetamide] were, in that order, 25 to 50% and no less than 75%.
In the case of `CC(=O)N(C)c1cnn(C(=O)N2C[C@H]3C[C@H](N(Cc4cccc(Cl)c4)C(C)=O)C[C@H]3C2)c1` [Example 173, N-(3-chlorobenzyl)-N-(trans-2-(4-(N-methylacetamido)-1H-pyrazole-1-carbonyl)octahydrocyclopenta[c]pyrrol-5-yl)acetamide], the inhibition at 1 µM in test [1] is 0 to 25%; in test [2] it was no less than 75%.
The like results for `CC(=O)N(C)c1cnn(C(=O)N2C[C@H]3C[C@H](N(Cc4ccc(Cl)cc4)C(C)=O)C[C@H]3C2)c1` [Example 174, N-(4-chlorobenzyl)-N-(trans-2-(4-(N-methylacetamido)-1H-pyrazole-1-carbonyl)octahydrocyclopenta[c]pyrrol-5-yl)acetamide] were, in that order, 0 to 25% and no less than 75%.
As for `CC(=O)N(C)c1cnn(C(=O)N2CC3CN(Cc4ccc(F)cc4)CC3C2)c1` (stereo not drawn) [Example 178, N-(1-(5-(4-fluorobenzyl)octahydropyrrolo[3,4-c]pyrrole-2-carbonyl)-1H-pyrazol-4-yl)-N-methylacetamide], in test [1], the IC50 lay in the range of 0.1 to 1 µM and the inhibition at 1 µM is no less than 75%. Also, in test [2], the IC50 is 1 to 10 µM and the inhibition at 1 µM was 25 to 50%.
As for `COc1ccc(CN2CC3CN(C(=O)n4cc(N(C)C(C)=O)cn4)CC3C2)cc1` (stereo not drawn) [Example 179, N-(1-(5-(4-methoxybenzyl)octahydropyrrolo[3,4-c]pyrrole-2-carbonyl)-1H-pyrazol-4-yl)-N-methylacetamide], the inhibition at 1 µM in test [1] is no less than 75%; in test [2], 25 to 50%.
Consider `CC(=O)N(C)c1cnn(C(=O)N2CC3CN(Cc4cccc(F)c4)CC3C2)c1` (stereo not drawn) [Example 180, N-(1-(5-(3-fluorobenzyl)octahydropyrrolo[3,4-c]pyrrole-2-carbonyl)-1H-pyrazol-4-yl)-N-methylacetamide], for which, in test [1], the IC50 was in the range of 0.1 to 1 µM and the inhibition at 1 µM is no less than 75%. In test [2], the concentration for half-maximal inhibition (IC50) was 0.1 to 1 µM and the inhibition at 1 µM is 50 to 75%.
On to `COc1cccc(CN2CC3CN(C(=O)n4cc(N(C)C(C)=O)cn4)CC3C2)c1` (stereo not drawn) [Example 181, N-(1-(5-(3-methoxybenzyl)octahydropyrrolo[3,4-c]pyrrole-2-carbonyl)-1H-pyrazol-4-yl)-N-methylacetamide], for which the IC50 was in the range of 0.1 to 1 µM in test [1] and 1 to 10 µM in test [2]. Moreover, the results for the inhibition at 1 µM in test [1] and in test [2] were no less than 75% and 50 to 75%, respectively.
Turning to `CC(=O)N(C)c1cnn(C(=O)N2CC3CN(Cc4ccccc4F)CC3C2)c1` (stereo not drawn) [Example 182, N-(1-(5-(2-fluorobenzyl)octahydropyrrolo[3,4-c]pyrrole-2-carbonyl)-1H-pyrazol-4-yl)-N-methylacetamide], the values for the IC50 in test [1] and in test [2] were no more than 0.1 µM and 0.1 to 1 µM, respectively. Besides, the inhibition at 1 µM in test [1] and in test [2] was no less than 75% in each case.
With `CC(=O)N(C)c1cnn(C(=O)N2CC3CN(Cc4ccccc4N4CCCC4)CC3C2)c1` (stereo not drawn) [Example 184, N-methyl-N-(1-(5-(2-(pyrrolidin-1-yl)benzyl)octahydropyrrolo[3,4-c]pyrrole-2-carbonyl)-1H-pyrazol-4-yl)acetamide], the inhibition at 1 µM was 50 to 75% in test [1] and no less than 75% in test [2].
As to `CC(=O)N(C)c1cnn(C(=O)N2CC3CN(Cc4ccccc4N4CCOCC4)CC3C2)c1` (stereo not drawn) [Example 185, N-methyl-N-(1-(5-(2-morpholinobenzyl)octahydropyrrolo[3,4-c]pyrrole-2-carbonyl)-1H-pyrazol-4-yl)acetamide], the inhibition at 1 µM lay within 0 to 25% in test [1] and 50 to 75% in test [2].
`CC(=O)N(C)c1cnn(C(=O)N2CCC3(CCN(Cc4ccccc4Cl)C3)CC2)c1` [Example 186, N-(1-(2-(2-chlorobenzyl)-2,8-diazaspiro[4.5]decane-8-carbonyl)-1H-pyrazol-4-yl)-N-methylacetamide]: in test [1], the half-inhibitory concentration (IC50) was in the range of 0.1 to 1 µM and the inhibition at 1 µM was no less than 75%. Also, in test [2], the IC50 is no more than 0.1 µM and the inhibition at 1 µM is no less than 75%.
For the compound `CC(=O)N(C)c1cnn(C(=O)N2CCC3(CCN(Cc4cccc(Cl)c4)C3)CC2)c1` [Example 187, N-(1-(2-(3-chlorobenzyl)-2,8-diazaspiro[4.5]decane-8-carbonyl)-1H-pyrazol-4-yl)-N-methylacetamide], the IC50 in test [1] and in test [2] was 0.1 to 1 µM each time. Also, the inhibition at 1 µM in test [1] and in test [2] was no less than 75% in each case.
Consider `CC(=O)N(C)c1cnn(C(=O)N2CCC3(CCN(Cc4ccc(Cl)cc4)C3)CC2)c1` [Example 188, N-(1-(2-(4-chlorobenzyl)-2,8-diazaspiro[4.5]decane-8-carbonyl)-1H-pyrazol-4-yl)-N-methylacetamide], for which the IC50 in test [1] and in test [2] was 0.1 to 1 µM each time. Besides, the inhibition at 1 µM in test [1] and in test [2] was no less than 75% in each case.
Consider `CC(=O)N(C)c1cnn(C(=O)N2CC3CN(Cc4ccc(OCC(=O)N5CCCC5)cc4Cl)CC3C2)c1` (stereo not drawn) [Example 189, N-(1-(5-(2-chloro-4-(2-oxo-2-(pyrrolidin-1-yl)ethoxy)benzyl)octahydropyrrolo[3,4-c]pyrrole-2-carbonyl)-1H-pyrazol-4-yl)-N-methylacetamide], for which the half-maximal inhibitory concentration (IC50) lay in the range of 0.1 to 1 µM in test [1] and 1 to 10 µM in test [2]. Also, the values for the inhibition at 1 µM in test [1] and in test [2] were 0 to 25% and no less than 75%, respectively.
On to `CC(=O)N(C)c1cnn(C(=O)N2CCN(Cc3cc(N4CCCC4)cc(C(F)(F)F)c3)CC2)c1` [Example 190, N-methyl-N-(1-(4-(3-(pyrrolidin-1-yl)-5-(trifluoromethyl)benzyl)piperazine-1-carbonyl)-1H-pyrazol-4-yl)acetamide], for which, in test [1], the IC50 was 1 to 10 µM and the inhibition at 1 µM was 50 to 75%. For the same compound, in test [2], the IC50 was no more than 0.1 µM and the inhibition at 1 µM is no less than 75%.
